In patent publication US20240109864A1, “SUBSTITUTED PYRAZOLYL PIPERIDINE CARBOXYLIC ACIDS” (BAYER AKTIENGESELLSCHAFT, priority 2020, published 2024):
Counter-ions that a name gives are not always drawn.

Molecular target: T1, recombinant guanylate cyclase reporter cell line (Rattus norvegicus, UniProt P20595)
T1 construct: expressed in transfected cells
T1 sequence (P20595 1-619): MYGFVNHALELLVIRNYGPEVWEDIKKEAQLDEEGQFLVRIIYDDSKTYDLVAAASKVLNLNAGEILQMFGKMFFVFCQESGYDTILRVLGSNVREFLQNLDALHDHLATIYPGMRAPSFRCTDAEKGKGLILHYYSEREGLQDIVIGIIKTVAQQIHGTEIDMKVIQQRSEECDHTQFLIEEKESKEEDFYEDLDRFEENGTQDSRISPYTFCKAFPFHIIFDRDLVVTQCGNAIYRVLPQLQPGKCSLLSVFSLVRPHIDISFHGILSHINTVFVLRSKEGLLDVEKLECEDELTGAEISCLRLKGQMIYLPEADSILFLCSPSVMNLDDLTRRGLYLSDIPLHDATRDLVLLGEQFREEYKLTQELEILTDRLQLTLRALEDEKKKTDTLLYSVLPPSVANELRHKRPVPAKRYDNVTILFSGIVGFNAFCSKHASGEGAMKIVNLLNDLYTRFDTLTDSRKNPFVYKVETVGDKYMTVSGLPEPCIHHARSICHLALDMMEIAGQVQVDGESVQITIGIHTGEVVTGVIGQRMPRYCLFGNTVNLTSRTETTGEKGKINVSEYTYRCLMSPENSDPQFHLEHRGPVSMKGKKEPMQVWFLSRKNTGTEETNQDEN
T1 sequence (P19686 1-690 partner): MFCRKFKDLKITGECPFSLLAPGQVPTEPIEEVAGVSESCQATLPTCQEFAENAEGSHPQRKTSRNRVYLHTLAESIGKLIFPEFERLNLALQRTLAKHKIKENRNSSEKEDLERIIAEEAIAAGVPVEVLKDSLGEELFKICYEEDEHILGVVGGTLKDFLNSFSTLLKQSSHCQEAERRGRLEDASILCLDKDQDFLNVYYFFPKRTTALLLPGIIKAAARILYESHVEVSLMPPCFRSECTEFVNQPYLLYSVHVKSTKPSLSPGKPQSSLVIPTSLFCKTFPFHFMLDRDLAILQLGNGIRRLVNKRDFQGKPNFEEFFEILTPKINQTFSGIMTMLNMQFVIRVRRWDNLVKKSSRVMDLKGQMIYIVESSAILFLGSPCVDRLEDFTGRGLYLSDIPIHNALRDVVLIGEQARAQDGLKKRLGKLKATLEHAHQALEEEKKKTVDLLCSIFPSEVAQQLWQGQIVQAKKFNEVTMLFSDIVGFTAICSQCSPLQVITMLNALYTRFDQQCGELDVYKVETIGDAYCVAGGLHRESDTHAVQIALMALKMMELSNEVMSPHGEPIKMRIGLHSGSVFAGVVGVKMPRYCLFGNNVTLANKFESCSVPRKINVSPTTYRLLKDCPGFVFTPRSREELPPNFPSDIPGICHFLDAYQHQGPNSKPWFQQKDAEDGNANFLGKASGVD
Assay: Effect on a recombinant guanylate cyclase reporter cell line
Format: cell-based
Details: in some cases mean values from individual determinations; for MEC: MEC = minimum effective concentration; for EC50: half maximal effective concentration
Description: The cellular activity of the compounds according to the invention was determined using a recombinant guanylate cyclase reporter cell line, as described in F. Wunder et al., Anal. Biochem. 339, 104-112 (2005).

Row | Compound | MEC [nM] | EC50 [nM] | MEC (hydrochloride) [nM]
1 | CC(F)(F)CN1CCN(c2ccc(-c3ccc(Cl)cc3N3CCCC(n4ncc(C(=O)O)c4C(F)(F)F)C3)cc2)CC1 (single isomer, unassigned) [Example 11, 1-[1-[5-Chloro-2-[4-[4-(2,2-difluoropropyl)piperazin-1-yl]phenyl]phenyl]-3-piperidyl]-5-(trifluoromethyl)pyrazole-4-carboxylic acid hydrochloride] | 0.3 | 1.4 | –
2 | O=C(O)c1cnn(C2CCCN(c3cc(Cl)ccc3-c3ccc(N4CCN(C[C@H]5C[C@H]5F)CC4)cc3)C2)c1C(F)(F)F (single isomer, unassigned) [Example 29, hydrochloride] | 0.3 | 6.9 | –
3 | O=C(O)c1cnn(C2CCCN(c3cc(Cl)ccc3-c3ccc(N4CCN(CC5CC5C(F)(F)F)CC4)cc3)C2)c1C(F)(F)F (single isomer, unassigned) [Example 32, 1-[1-[5-Chloro-2-[4-[4-[[2-(trifluoromethyl)cyclopropyl]methyl]piperazin-1-yl]phenyl]phenyl]-3-piperidyl]-5-(trifluoromethyl)pyrazole-4-carboxylic acid hydrochloride] | – | 9.3 | 3.0
4 | COCCCOC(=O)N1CCN(c2ccc(-c3ccc(Cl)cc3N3CCCC(n4ncc(C(=O)O)c4C(F)(F)F)C3)cc2)CC1 (single isomer, unassigned) [Example 63, 1-[1-[5-Chloro-2-[4-[4-(3-methoxypropoxycarbonyl)piperazin-1-yl]phenyl]phenyl]-3-piperidyl]-5-(trifluoromethyl)pyrazole-4-carboxylic acid] | 10.0 | 27 | –
5 | O=C(O)c1cnn(C2CCCN(c3cc(Cl)ccc3-c3ccc(N4CCN(CC5CC(F)C5)CC4)cc3)C2)c1C(F)(F)F (single isomer, unassigned) [Example 22, 1-[1-[5-Chloro-2-[4-[4-[(3-fluorocyclobutyl)methyl]piperazin-1-yl]phenyl]phenyl]-3-piperidyl]-5-(trifluoromethyl)pyrazole-4-carboxylic acid hydrochloride] | 2.0 | 11.4 | –
6 | O=C(O)c1cnn(C2CCCN(c3cc(Cl)ccc3-c3ccc4c(c3)CCN(CC(F)(F)F)C4)C2)c1C(F)(F)F (single isomer, unassigned) [Example 80, 1-[1-[5-Chloro-2-[2-(2,2,2-trifluoroethyl)-3,4-dihydro-1H-isoquinolin-6-yl]phenyl]-3-piperidyl]-5-(trifluoromethyl)pyrazole-4-carboxylic acid] | 10.0 | 85.5 | –
7 | O=C(O)c1cnn(C2CCCN(c3cc(Cl)ccc3-c3ccc(N4CCN(C(=O)C5CC(F)(F)C5)CC4)cc3)C2)c1C(F)(F)F (single isomer, unassigned) [Example 50, 1-[1-[5-Chloro-2-[4-[4-(3,3-difluorocyclobutanecarbonyl)piperazin-1-yl]phenyl]phenyl]-3-piperidyl]-5-(trifluoromethyl)pyrazole-4-carboxylic acid] | 10.0 | 47.5 | –
8 | O=C(O)c1cnn(C2CCCN(c3cc(Cl)ccc3-c3ccc(N4CCN(C(=O)C5CC5(F)F)CC4)cc3)C2)c1C(F)(F)F (single isomer, unassigned) [Example 47, 1-[1-[5-Chloro-2-[4-[4-[2,2-difluorocyclopropanecarbonyl]piperazin-1-yl]phenyl]phenyl]-3-piperidyl]-5-(trifluoromethyl)pyrazole-4-carboxylic acid] | 3.0 | 17 | –
9 | O=C(O)c1cnn(C2CCCN(c3cc(Cl)ccc3-c3ccc(N4CCN(CC5C[C@@H]5F)CC4)cc3)C2)c1C(F)(F)F (single isomer, unassigned) [Example 27, 1-[1-[5-Chloro-2-[4-[4-[[2-fluorocyclopropyl]methyl]piperazin-1-yl]phenyl]phenyl]-3-piperidyl]-5-(trifluoromethyl)pyrazole-4-carboxylic acid hydrochloride] | 3.0 | 15 | –
10 | O=C(O)c1cnn(C2CCCN(c3cc(Cl)ccc3-c3ccc(N4CCN(CC5CC5F)CC4)cc3)C2)c1C(F)(F)F (single isomer, unassigned) [Example 26, 1-[1-[5-Chloro-2-[4-[4-[[2-trans-fluorocyclopropyl]methyl]piperazin-1-yl]phenyl]phenyl]-3-piperidyl]-5-(trifluoromethyl)pyrazole-4-carboxylic acid hydrochloride] | – | 5.2 | 1.0

More lines, now with the values ahead:

Row | MEC [nM] | EC50 [nM] | MEC (hydrochloride) [nM] | Compound
11 | 1.0 | 3.6 | – | O=C(O)c1cnn(C2CCCN(c3cc(Cl)ccc3-c3ccc(C4CC4)nc3)C2)c1C(F)(F)F (single isomer, unassigned) [Example 79, 1-[1-[5-Chloro-2-(6-cyclopropyl-3-pyridyl)phenyl]-3-piperidyl]-5-(trifluoromethyl)pyrazole-4-carboxylic acid]
12 | – | 2.5 | 0.3 | O=C(O)c1cnn(C2CCCN(c3cc(Cl)ccc3-c3ccc(C4CCN(C(=O)C5CC5)CC4)cc3)C2)c1C(F)(F)F (single isomer, unassigned) [Example 84, 1-[1-[5-Chloro-2-[4-[1-(cyclopropanecarbonyl)-4-piperidyl]phenyl]phenyl]-3-piperidyl]-5-(trifluoromethyl)pyrazole-4-carboxylic acid hydrochloride]
13 | 3.0 | 14 | – | O=C(O)c1cnn(C2CCCN(c3cc(Cl)ccc3-c3ccc(N4CCN(C(=O)[C@H]5C[C@H]5F)CC4)cc3)C2)c1C(F)(F)F (single isomer, unassigned) [Example 45, hydrochloride]
14 | 10.0 | 42.5 | – | CCCOC(=O)N1CCN(c2ccc(-c3ccc(Cl)cc3N3CCCC(n4ncc(C(=O)O)c4C(F)(F)F)C3)cc2)CC1 (single isomer, unassigned) [Example 58, 1-[1-[5-Chloro-2-[4-(4-propoxycarbonylpiperazin-1-yl)phenyl]phenyl]-3-piperidyl]-5-(trifluoromethyl)pyrazole-4-carboxylic acid]
15 | 0.3 | 3.9 | – | CCC(=O)N1CCC(c2ccc(-c3ccc(Cl)cc3N3CCCC(n4ncc(C(=O)O)c4C(F)(F)F)C3)cc2)CC1 (single isomer, unassigned) [Example 82, 1-[1-[5-Chloro-2-[4-(1-propanoyl-4-piperidyl)phenyl]phenyl]-3-piperidyl]-5-(trifluoromethyl)pyrazole-4-carboxylic acid hydrochloride]
16 | 10.0 | 31 | – | CC(C)CC(=O)N1CCN(c2ccc(-c3ccc(Cl)cc3N3CCCC(n4ncc(C(=O)O)c4C(F)(F)F)C3)cc2)CC1 (single isomer, unassigned) [Example 52, 1-[1-[5-Chloro-2-[4-[4-(3-methylbutanoyl)piperazin-1-yl]phenyl]phenyl]-3-piperidyl]-5-(trifluoromethyl)pyrazole-4-carboxylic acid]
17 | 3.0 | 44 | – | COCCC(=O)N1CCN(c2ccc(-c3ccc(Cl)cc3N3CCCC(n4ncc(C(=O)O)c4C(F)(F)F)C3)cc2)CC1 (single isomer, unassigned) [Example 41, 1-[1-[5-Chloro-2-[4-[4-(3-methoxypropanoyl)piperazin-1-yl]phenyl]phenyl]-3-piperidyl]-5-(trifluoromethyl)pyrazole-4-carboxylic acid]
18 | 3.0 | 19 | – | CCCC(=O)N1CCN(c2ccc(-c3ccc(Cl)cc3N3CCCC(n4ncc(C(=O)O)c4C(F)(F)F)C3)cc2)CC1 (single isomer, unassigned) [Example 40, 1-[1-[2-[4-(4-Butanoylpiperazin-1-yl)phenyl]-5-chloro-phenyl]-3-piperidyl]-5-(trifluoromethyl)pyrazole-4-carboxylic acid]
19 | 3.0 | 26.5 | – | O=C(O)c1cnn(C2CCCN(c3cc(Cl)ccc3-c3ccc(N4CCN(CC5CCC5)CC4)cc3)C2)c1C(F)(F)F (single isomer, unassigned) [Example 19, 1-[1-[5-Chloro-2-[4-[4-(cyclobutylmethyl)piperazin-1-yl]phenyl]phenyl]-3-piperidyl]-5-(trifluoromethyl)pyrazole-4-carboxylic acid hydrochloride]
